Consider 18 compounds from ChEMBL document CHEMBL3286387, “α-Tetralone derivatives as inhibitors of monoamine oxidase” (Bioorg Med Chem Lett, 2014).

The target in the first series is T1, Amine oxidase [flavin-containing] A (Homo sapiens, UniProt P21397).
T1 sequence (P21397 whole entry): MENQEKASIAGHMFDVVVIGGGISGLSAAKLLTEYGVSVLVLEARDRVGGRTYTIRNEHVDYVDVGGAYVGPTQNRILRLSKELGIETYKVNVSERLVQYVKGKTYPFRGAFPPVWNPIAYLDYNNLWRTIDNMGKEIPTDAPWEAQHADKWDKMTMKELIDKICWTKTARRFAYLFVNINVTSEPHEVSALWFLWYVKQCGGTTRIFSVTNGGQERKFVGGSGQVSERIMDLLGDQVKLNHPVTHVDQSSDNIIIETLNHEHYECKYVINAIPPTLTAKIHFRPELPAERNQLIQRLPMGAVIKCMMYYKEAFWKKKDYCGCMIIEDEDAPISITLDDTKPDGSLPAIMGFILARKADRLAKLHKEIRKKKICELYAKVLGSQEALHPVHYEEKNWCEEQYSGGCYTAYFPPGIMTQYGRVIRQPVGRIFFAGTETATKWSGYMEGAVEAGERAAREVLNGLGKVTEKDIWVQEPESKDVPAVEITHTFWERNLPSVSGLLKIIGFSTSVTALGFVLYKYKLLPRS
Description: Reversible inhibition of recombinant human MAO-A using kynuramine as substrate assessed as enzyme residual activity at 4 times IC50 incubated for 15 mins measured after 24 hrs by fluorescence spectrophotometry analysis relative to control.
With `N#Cc1cccc(COc2ccc3c(c2)CCCC3=O)c1`, the Activity amounted to 44%.

A further series deals with T1, Amine oxidase [flavin-containing] A. Description: Inhibition of recombinant human MAO-A using kynuramine as substrate assessed as 4-hydroxyquinoline production after 30 mins by fluorescence spectrophotometry analysis.
As to `O=C1CCCc2cc(O)ccc21`, the IC50 is 43800 nM.

Take `O=C1CCCc2cc(OCc3cccc(I)c3)ccc21`: the half-maximal inhibitory concentration (IC50) turned out to be 1290 nM.

As for `O=C1CCCc2cc(OCc3ccc(Cl)cc3)ccc21`, the IC50 was 238 nM.

Regarding `O=C1CCCc2cc(OCc3ccc(I)cc3)ccc21`, the IC50 is 2250 nM.

In the case of `O=C1CCCc2cc(OCc3ccccc3)ccc21`, the IC50 was 792 nM.

As to `O=C1CCCc2cc(OCCc3ccccc3)ccc21`, the IC50 amounted to 1320 nM.

Take `O=C1CCCc2cc(OCc3ccc(F)cc3)ccc21`: the IC50 stood at 266 nM.

`Cc1ccc(COc2ccc3c(c2)CCCC3=O)cc1`: the IC50 is 2090 nM.

Regarding `O=C1CCCc2cc(OCc3ccc(C(F)(F)F)cc3)ccc21`, the IC50 was determined as 547 nM.

Turning to `O=C1CCCc2ccccc21`, the IC50 is 14800 nM.

As to `O=C1CCCc2cc(OCCCc3ccccc3)ccc21`, the IC50 was 1160 nM.

For the compound `O=C1CCCc2cc(OCc3cccc(Cl)c3)ccc21`, the 50% inhibitory concentration (IC50) was found to be 207 nM.

On to `N#Cc1ccc(COc2ccc3c(c2)CCCC3=O)cc1`, for which the IC50 is 656 nM.

Regarding `N#Cc1cccc(COc2ccc3c(c2)CCCC3=O)c1`, the IC50 turned out to be 24 nM.

As for `O=C1CCCc2cc(OCc3cccc(Br)c3)ccc21`, the IC50 was 212 nM.

Consider `O=C1CCCc2cc(OCc3ccc(Br)cc3)ccc21`, for which the IC50 amounted to 311 nM.

Regarding `O=C1CCCc2cc(OCc3cccc(F)c3)ccc21`, the IC50 came to 392 nM.

Another series concerns the target T2, Amine oxidase [flavin-containing] B (Homo sapiens, UniProt P27338).
T2 sequence (P27338 whole entry): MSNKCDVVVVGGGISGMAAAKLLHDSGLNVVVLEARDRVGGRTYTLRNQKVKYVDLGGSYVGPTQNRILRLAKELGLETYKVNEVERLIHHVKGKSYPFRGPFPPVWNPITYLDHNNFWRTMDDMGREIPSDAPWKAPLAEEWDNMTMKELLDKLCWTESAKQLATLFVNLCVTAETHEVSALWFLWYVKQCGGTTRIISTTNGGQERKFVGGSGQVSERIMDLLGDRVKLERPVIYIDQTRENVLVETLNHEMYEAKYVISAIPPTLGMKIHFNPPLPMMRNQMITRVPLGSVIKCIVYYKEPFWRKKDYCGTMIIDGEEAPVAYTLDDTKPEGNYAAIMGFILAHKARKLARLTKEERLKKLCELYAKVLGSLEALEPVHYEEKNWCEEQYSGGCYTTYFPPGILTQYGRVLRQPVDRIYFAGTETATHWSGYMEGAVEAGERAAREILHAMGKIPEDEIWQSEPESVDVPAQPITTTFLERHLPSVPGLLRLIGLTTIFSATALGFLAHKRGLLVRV
The series is described as follows: Reversible inhibition of recombinant human MAO-B using kynuramine as substrate assessed as enzyme residual activity at 4 times IC50 incubated for 15 mins measured after 24 hrs by fluorescence spectrophotometry analysis relative to control.
Consider `O=C1CCCc2cc(OCc3cccc(I)c3)ccc21`, for which the Activity is listed as 23%.

In a further series the target is T2, Amine oxidase [flavin-containing] B. The series is described as follows: Inhibition of recombinant human MAO-B using kynuramine as substrate assessed as 4-hydroxyquinoline production after 30 mins by fluorescence spectrophotometry analysis.
`O=C1CCCc2cc(O)ccc21`: the IC50 is 66400 nM.

On to `O=C1CCCc2cc(OCc3cccc(I)c3)ccc21`, for which the IC50 was determined as 4.5 nM.

As for `O=C1CCCc2cc(OCc3ccc(I)cc3)ccc21`, the IC50 was determined as 6.5 nM.

Regarding `O=C1CCCc2cc(OCc3ccccc3)ccc21`, the IC50 amounted to 63 nM.

As to `O=C1CCCc2cc(OCCc3ccccc3)ccc21`, the IC50 was determined as 33 nM.

In the case of `Cc1ccc(COc2ccc3c(c2)CCCC3=O)cc1`, the IC50 was 11 nM.

On to `O=C1CCCc2cc(OCc3ccc(C(F)(F)F)cc3)ccc21`, for which the IC50 is 6 nM.

Consider `O=C1CCCc2ccccc21`, for which the IC50 is 18600 nM.

For the compound `O=C1CCCc2cc(OCCCc3ccccc3)ccc21`, the IC50 was 32 nM.

Take `O=C1CCCc2cc(OCc3cccc(Cl)c3)ccc21`: the IC50 stood at 15 nM.

For the compound `N#Cc1ccc(COc2ccc3c(c2)CCCC3=O)cc1`, the IC50 was 11 nM.

With `N#Cc1cccc(COc2ccc3c(c2)CCCC3=O)c1`, the IC50 is 78 nM.

For the compound `O=C1CCCc2cc(OCc3cccc(Br)c3)ccc21`, the IC50 stood at 9 nM.

In the case of `O=C1CCCc2cc(OCc3ccc(Br)cc3)ccc21`, the IC50 was 9 nM.

In the case of `O=C1CCCc2cc(OCc3cccc(F)c3)ccc21`, the IC50 came to 17 nM.

For a further series, the species on record is Homo sapiens. Description: Selectivity index, ratio of IC50 for recombinant human MAO-A to IC50 for recombinant human MAO-B.
For the compound `O=C1CCCc2cc(O)ccc21`, the Ratio IC50 turned out to be 0.7.

As to `O=C1CCCc2cc(OCc3cccc(I)c3)ccc21`, the Ratio IC50 turned out to be 287.

Turning to `O=C1CCCc2cc(OCc3ccc(I)cc3)ccc21`, the Ratio IC50 was 346.

As to `O=C1CCCc2cc(OCc3ccccc3)ccc21`, the Ratio IC50 was 13.

Consider `O=C1CCCc2cc(OCCc3ccccc3)ccc21`, for which the Ratio IC50 came to 40.

Regarding `Cc1ccc(COc2ccc3c(c2)CCCC3=O)cc1`, the Ratio IC50 came to 190.

With `O=C1CCCc2cc(OCc3ccc(C(F)(F)F)cc3)ccc21`, the Ratio IC50 came to 91.

Regarding `O=C1CCCc2ccccc21`, the Ratio IC50 was determined as 0.8.

Take `O=C1CCCc2cc(OCCCc3ccccc3)ccc21`: the Ratio IC50 was 36.

Regarding `O=C1CCCc2cc(OCc3cccc(Cl)c3)ccc21`, the Ratio IC50 was 14.

With `N#Cc1ccc(COc2ccc3c(c2)CCCC3=O)cc1`, the Ratio IC50 was determined as 60.

Consider `N#Cc1cccc(COc2ccc3c(c2)CCCC3=O)c1`, for which the Ratio IC50 turned out to be 0.3.

Consider `O=C1CCCc2cc(OCc3cccc(Br)c3)ccc21`, for which the Ratio IC50 worked out at 24.

Take `O=C1CCCc2cc(OCc3ccc(Br)cc3)ccc21`: the Ratio IC50 turned out to be 35.

Consider `O=C1CCCc2cc(OCc3cccc(F)c3)ccc21`, for which the Ratio IC50 was determined as 23.

The target of a further series is T1, Amine oxidase [flavin-containing] A. The series is described as follows: Reversible inhibition of recombinant human MAO-A using kynuramine as substrate assessed as enzyme residual activity at 4 times IC50 incubated for 15 mins measured after 24 hrs of dialysis by fluorescence spectrophotometry analysis relative to control.
Consider `C#CCN(C)Cc1ccccc1` [PARGYLINE], for which the Activity is listed as 1.6%.

In the case of `N#Cc1cccc(COc2ccc3c(c2)CCCC3=O)c1`, the Activity stood at 108%.

The next series addresses T2, Amine oxidase [flavin-containing] B. Description: Competitive inhibition of recombinant human MAO-B using kynuramine as substrate by Lineweaver-Burk plot analysis.
Take `O=C1CCCc2cc(OCc3cccc(I)c3)ccc21`: the Ki came to 7.1 nM.

The target in another series is T1, Amine oxidase [flavin-containing] A. Description: Competitive inhibition of recombinant human MAO-A using kynuramine as substrate by Lineweaver-Burk plot analysis.
As for `N#Cc1cccc(COc2ccc3c(c2)CCCC3=O)c1`, the Ki was found to be 25 nM.
